According to patent US20020009421A1, “Therapy following skin injury from exposure to ultraviolet radiation” (priority 2000, published 2002):

Tests used:
sunburn = assay: In Vivo Evaluation: sunburn in a human subject after about six hours of intense sunlight, oral self-administration; details: for relief of pain: oral self-administration, adult with severe sunburn, celecoxib 100 mg
Text: 1. Subject: An adult, person of light complexion whose skin had not been substantially exposed to strong sunlight for approximately six months.
2. Protocol: The subject was exposed to intense sunlight at a swimming pool for approximately six hours.
3. […] At that time the subject self-administered an oral dose of acetaminophen (Extra Strength Tylenol®) to relieve the pain. […] Later in the evening the subject was unable to sleep due to the continued pain. At that time the subject self-administered a 100 mg dose of Celebrex® (celecoxib). […] Approximately twelve hours later the subject took a second dose of celecoxib to relieve the onset of discomfort due to the sunburn.

UV-B mediated injury = details: cited from earlier work
[1] = test system: UV radiation-induced tumor formation and UV-B mediated inflammatory response; details: oral administration, cited from earlier work

| SMILES | relief of pain (sunburn) | time to almost complete relief of pain following administration (sunburn; 100 mg oral dose of Celebrex, adult with sunburn) [h] | healing of the burn (blistering, peeling of surface skin) (sunburn; two oral doses of celecoxib about twelve hours apart, subject's report) | cutaneous inflammatory response after exposure of skin to UV-B radiation (UV-B mediated injury; oral administration) | parameters of UV-B mediated injury (UV-B mediated injury; topical application) | tumor formation ([1]; animals chronically exposed to UV radiation) | acute UV-B mediated inflammatory response involving increased cell proliferation and edema ([1]; following acute or chronic exposure to UV radiation) | UV-B induced prostaglandin synthesis [1] |
| --- | --- | --- | --- | --- | --- | --- | --- | --- |
| CC(=O)Nc1ccc(O)cc1 [acetaminophen] | no relief in pain | – | – | – | – | – | – | – |
| Cc1ccc(-c2cc(C(F)(F)F)nn2-c2ccc(S(N)(=O)=O)cc2)cc1 [celecoxib, 4-[5-(4-methylphenyl)-3-(trifluoromethyl)-1H-pyrazol-1-yl]benzenesulfonamide] | almost complete relief of pain | ≤ 1 | rapid healing of the burn with no blistering or peeling of surface skin | failed to block the cutaneous inflammatory response | reduce many of the parameters of UV-B mediated injury | reduced tumor formation | failed to inhibit the acute UV-B mediated inflammatory response | block the UV-B induced prostaglandin synthesis |
